Data: ChEMBL document CHEMBL4689842, “EUbOPEN Chemogenomics Library wave 1” (2021)

Key:
Format in all cases: toxicity, cell-based
Fibroblast = assay: Incucyte cell viability with human fibroblast; conditions: 10 µM, compound concentration 10 uM
U2OS = assay: Incucyte cell viability with U2OS; conditions: human, 10 µM, compound concentration 10 uM
HEK-293T = assay: Incucyte cell viability with HEK293T; conditions: human, 10 µM, compound concentration 10 uM
[1] = 0 h, replicate number 1, timepoint 0 hours
[2] = 6 h, replicate number 1, timepoint 6 hours
[3] = 12 h, replicate number 1, timepoint 12 hours
[4] = 12 h, replicate number 2, timepoint 12 hours
[5] = 18 h, replicate number 1, timepoint 18 hours
[6] = 18 h, replicate number 2, timepoint 18 hours
[7] = 24 h, replicate number 1, timepoint 24 hours
[8] = 24 h, replicate number 2, timepoint 24 hours
[9] = 0 h, replicate number 2, timepoint 0 hours
[10] = 6 h, replicate number 2, timepoint 6 hours
Further: filed as whole numbers so only -1 and 0 and 1 occur.

Row | SMILES | Growth Rate (Fibroblast; [1]) | Growth Rate (Fibroblast; [2]) | Growth Rate (Fibroblast; [3]) | Growth Rate (Fibroblast; [4]) | Growth Rate (Fibroblast; [5]) | Growth Rate (Fibroblast; [6]) | Growth Rate (Fibroblast; [7]) | Growth Rate (U2OS; [10]) | Growth Rate (U2OS; [3]) | Growth Rate (U2OS; [5]) | Growth Rate (U2OS; [7]) | Growth Rate (HEK-293T; [1]) | Growth Rate (HEK-293T; [2]) | Growth Rate (HEK-293T; [3]) | Growth Rate (HEK-293T; [5]) | Growth Rate (HEK-293T; [7]) | Growth Rate (Fibroblast; [10]) | Growth Rate (U2OS; [1]) | Growth Rate (U2OS; [2]) | Growth Rate (HEK-293T; [9]) | further results
1 | COC(=O)/C=C/c1cccc(N(Cc2ccc(-c3ccc(N(C)C)cc3)cc2)C(=O)C2CCCCC2)c1 [FEXARAMINE] | 0 | 0 | 1 | 0 | 1 | 0 | 1 | 0 | 1 | 1 | 0 | 0 | 1 | 0 | 0 | 0 |  |  |  |  | Growth Rate (Fibroblast; [8]): 0; Growth Rate (U2OS; [9]): 0; Growth Rate (U2OS; [4]): 0; Growth Rate (U2OS; [6]): 0; Growth Rate (HEK-293T; [10]): 0
2 | COc1cc2ncnc(Nc3ccc(F)c(Cl)c3)c2cc1OCCCN1CCOCC1 [GEFITINIB] | 0 |  | 0 |  | 0 |  | 0 |  | 0 | 0 | 0 | 0 | 0 | 0 | 0 | 0 | 1 | 0 | 0 |  | Growth Rate (U2OS; [4]): 1; Growth Rate (U2OS; [6]): 1; Growth Rate (U2OS; [8]): 1
3 | C[C@]1(C(=O)N(CCCC(=O)O)Cc2cccc(Cl)c2)CCN1C(=O)c1csc2ccccc12 [GLPG-0974] | 0 | 0 | 0 |  | 1 |  | 1 | 1 | 1 | 1 | 1 | 1 | 1 | 1 | 1 | 1 |  | 0 |  | 0 | Growth Rate (Fibroblast; [9]): 1; Growth Rate (HEK-293T; [10]): 0; Growth Rate (HEK-293T; [4]): 0; Growth Rate (HEK-293T; [6]): 0; Growth Rate (HEK-293T; [8]): 0
4 | CC(C)(O)c1ccccc1CC[C@@H](SCC1(CC(=O)[O-])CC1)c1cccc(/C=C/c2ccc3ccc(Cl)cc3n2)c1.[Na+] [MONTELUKAST SODIUM] | 0 |  | 1 |  | 1 |  | 1 | 0 | 1 | 1 | 1 | 0 | 1 | 0 | 1 | 1 | 0 | 0 |  |  | Growth Rate (HEK-293T; [10]): 0; Growth Rate (HEK-293T; [6]): 0; Growth Rate (HEK-293T; [8]): 0
5 | CO[C@@H](C)c1c(Nc2ccc([C@H](N(C)C(=O)C3CCS(=O)(=O)CC3)C(F)(F)F)cc2)cnc2cc(Cl)nn12 [NVS-MALT1] |  | 0 | 0 | 1 | 0 | 1 | 0 | 1 | 1 | 1 | 1 | 0 |  | 0 | 0 | 0 | 1 | 0 | 0 | 1 | Growth Rate (Fibroblast; [9]): 0; Growth Rate (Fibroblast; [8]): 1; Growth Rate (U2OS; [4]): 0; Growth Rate (HEK-293T; [10]): 0
6 | Cc1cc(C(C)(C)C)c(O)c(C)c1CC1=NCCN1.Cl [OXYMETAZOLINE HYDROCHLORIDE] | 0 |  | 1 |  | 1 |  | 1 | 1 | 0 | 0 | 0 | 0 | 1 | 1 | 1 | 1 | 1 |  | 0 |  | Growth Rate (Fibroblast; [8]): 0; Growth Rate (U2OS; [4]): 1; Growth Rate (U2OS; [8]): 1; Growth Rate (HEK-293T; [10]): 0; Growth Rate (HEK-293T; [4]): 0; Growth Rate (HEK-293T; [6]): 0; Growth Rate (HEK-293T; [8]): 0
7 | C[C@H](c1ccc(F)cc1)N(Cc1cccc(C(=O)O)c1)C(=O)c1cnc2ccccc2c1 [PF-05105679] | 0 |  | 1 |  | 1 |  | 1 | 1 | 0 | 0 | 0 | 1 | 0 | 1 | 1 | 1 | 0 |  | 0 | 0 | Growth Rate (U2OS; [9]): 0; Growth Rate (U2OS; [4]): 1; Growth Rate (U2OS; [6]): 1; Growth Rate (U2OS; [8]): 1; Growth Rate (HEK-293T; [10]): 1; Growth Rate (HEK-293T; [4]): 0; Growth Rate (HEK-293T; [8]): 0
8 | Cl.Clc1ccc(CCCOCCCN2CCCCC2)cc1 [PITOLISANT HYDROCHLORIDE] | 0 |  |  |  | 1 |  | 1 |  | 1 | 1 | 1 |  | 0 | 0 | 0 | 0 |  | 0 |  | 0 | 
9 | COc1ccc(S(=O)(=O)N2c3ccc(Cl)cc3[C@](O)(c3ccccc3Cl)[C@@H]2C(=O)N2CCC[C@H]2C(N)=O)cc1OC [RELCOVAPTAN] | 0 | 0 | 0 |  | 0 |  | 0 | 0 | 0 | 0 | 0 | 1 | 0 | 0 | 0 | 0 |  |  | 1 | 0 | Growth Rate (Fibroblast; [9]): 1; Growth Rate (U2OS; [8]): 1
10 | O[C@H]1CC[C@H](Nc2ncc3nc(Nc4c(F)cc(F)cc4F)n([C@H]4CCOC4)c3n2)CC1 [TANZISERTIB] |  | 0 | 1 | 0 | 1 |  | 1 |  | 0 | 0 | 0 | 0 |  |  |  |  |  | 0 | 0 | 1 | Growth Rate (Fibroblast; [9]): 0; Growth Rate (U2OS; [9]): 1
11 | COCCOc1nc(-c2ccc(Cl)nc2)nc2c1CN(C(=O)c1ncn3ccccc13)CC2 [THPP-1] | 0 | 0 | 1 | 0 | 1 | 0 | 1 | 1 | 1 | 0 | 0 | 0 |  |  | 1 | 1 |  | 0 | 0 | 1 | Growth Rate (Fibroblast; [8]): 0; Growth Rate (HEK-293T; [10]): 0; Growth Rate (HEK-293T; [4]): 0; Growth Rate (HEK-293T; [8]): 0
12 | Cc1ccccc1C(=O)Nc1ccc(C(=O)N2CCCC(O)c3cc(Cl)ccc32)c(C)c1 (stereo not given) [TOLVAPTAN] | 1 | 0 | 1 | 0 | 1 | 0 | 1 |  | 0 | 0 | 1 | 1 | 0 | 0 | 0 | 0 |  |  | 0 | 0 | Growth Rate (Fibroblast; [8]): 0
13 | Cc1cc(-n2nc(Cc3cc(F)cc(C(F)(F)F)c3)nc2C)ccc1C(N)=O [TP-024] | 0 | 1 | 1 | 0 | 1 | 0 | 1 | 1 | 0 | 0 | 0 | 1 | 0 | 0 | 0 | 0 | 0 |  | 0 | 0 | Growth Rate (Fibroblast; [9]): 1; Growth Rate (Fibroblast; [8]): 0; Growth Rate (U2OS; [4]): 1; Growth Rate (U2OS; [6]): 1; Growth Rate (U2OS; [8]): 1
14 | CN1CCc2c(c3ccccc3n2Cc2ccc(C(=O)NO)cc2)C1 [TUBASTATIN A] | 1 |  |  | 0 | 1 | 0 | 1 |  | 1 | 1 | 1 | 0 |  |  |  |  | 0 | 0 | 1 | 1 | 
15 | COc1cc(C(=O)NS(=O)(=O)c2ccccc2C)ccc1Cc1cn(C)c2ccc(NC(=O)OC3CCCC3)cc12 [ZAFIRLUKAST] | 0 | 1 | 0 |  | 1 | 0 | 0 | 1 | 1 | 1 | 1 | 0 | 1 | 1 | 1 | 1 | 0 | 0 |  |  | Growth Rate (HEK-293T; [4]): 0; Growth Rate (HEK-293T; [6]): 0; Growth Rate (HEK-293T; [8]): 0
